In patent US20160120915A1, “METHODS FOR MANIPULATING IMMUNE RESPONSES BY ALTERING MICROBIOTA” (NEW YORK UNIVERSITY, priority 2013, published 2016):
“Also recorded” adds a separate entry of the source. Where a name gives a salt, the structure may show the parent alone.

Assays:
[1] = tested on: NOD mice; assay: NOD PAT/STAT: type 1 diabetes incidence; type: in vivo, NOD/ShiLTj mice
Excerpt: Pregnant NOD/ShiLTj mice were randomized into 3 groups: Control, STAT, and PAT. Control mice were maintained on non-acidified sterilized water. STAT pregnant dams were given low dose penicillin beginning late in pregnancy until pups were 12 weeks of age. PAT mice were given 3 therapeutic doses of tylosin starting on day 10 of life. At 6 weeks of age, 13 male (5 control, 3 STAT, 5 PAT) and 15 female (5 per group) NOD mice were sacrificed for immune-phenotyping by flow cytometry and ileal gene expression analysis by microarray and qPCR. From 10 weeks of age to 31 weeks of age, mice were tested for diabetes weekly by blood glucose measurement and urinary glucose detection. Onset of diabetes was defined as two consecutive weeks of blood glucose >250 mg/dl and glucosuria.
For the NOD experiments, dams (and their litters) were divided into control, STAT, and PAT groups (FIG. 33). The control mice were given non-acidified sterilized water throughout the experiments, and for the 2 antibiotic groups (STAT and PAT), the antibiotics were dissolved in non-acidified sterilized water. For STAT, subtherapeutic penicillin VK (1 mg/kg/day) was added to the drinking water in late pregnancy (so that the pups pass through an altered vaginal microbiota), and then continued until day 84 of life. […] Mice were monitored for diabetes onset by glucosuria and blood glucose, starting at 10 weeks of age. […]

[2] = tested on: pancreatic islets; assay: NOD: pancreatic insulitis scoring in 6-week old mice; type: in vivo; conditions: p<0.05
Protocol: Pancreata from 6-week-old control, STAT and PAT mice were fixed in modified Bouin's fixative (17 ml saturated aqueous picric acid, 1 ml glacial acetic acid, 2 ml 38-40% formalin) and paraffin embedded, cut, and stained with Aldehyde Fuchsin for insulitis scoring (Leiter, Curr Protoc Immunol. 2001; Chapter 15:Unit 15 9). Five sections were made for each pancreas. Each of the sections is 5 microns thick with a 70 microns gap between sections. Insulitis was scored on a scale of 0-4: 0, normal islet; 1, peri-insular leukocyte aggregates; 2, leukocyte infiltration <25%; 3, leukocyte infiltration >25%, but <75%; 4, leukocyte infiltration >75% and β-cell destruction. For each mouse, an insulitis score was calculated based on the following formula: (total score for all islets)/(4×number of islets examined) (Forestier et al., Journal of immunology. 2007; 178, 1415). […] The most severely affected islet was scored from each section. Insulitis was scored on a scale of 0-4: 0, normal islet; 1, peri-insular leukocyte aggregates; 2, leukocyte infiltration <25%; 3, leukocyte infiltration >25%, but <75%; 4, leukocyte infiltration >75% and β-cell destruction, according to standard criteria. For the females, we scored at least 24 islets per group (5 mice per group). […] For the males, 25 islets were scored for the control and PAT group (5 mice per group), and 15 islets from the STAT group (3 mice). […]

[3] = tested on: ileal tissue; assay: TimeSTAT: expression of immunological markers in ileal tissue by qPCR; type: in vivo, C57BL/6J mice; conditions: 20 weeks of age
Excerpt: C57BL/6J (Jackson Labs, Bar Harbor, Me.) mice either received no antibiotics (control, females n=5, males n=5) or continuous STAT penicillin starting at birth (STATb, females n=4, males n=5), or at weaning at 4 weeks (STATw, females n=5, males n=5). Mice were weaned at 4 weeks onto normal chow (13.2% fat, 5053 PicoLab Rodent Diet 20, LabDiet, Brentwood, Mo.).
Both STATw and STATb remained on lifelong STAT after initial exposure. Mice were sacrificed at 20 weeks of age. The terminal[1 cm] ileum without Peyer's Patches [TI-] was collected for gene expression analysis by qPCR.
Total RNA was extracted from mouse tissues using the RNeasy Mini Kit (Qiagen), according to the manufacturer's instructions. Total RNA was reverse transcribed to cDNA using the Verso™ cDNA Synthesis Kit (Thermo Scientific). To generate standards for expression analysis of each target gene, the cDNA region of interest was PCR-amplified and the PCR product was cloned into pGEM-T easy (Promega). qPCR was performed with LightCycler 480 SYBR Green I Master mix (Roche) and run in a LightCycler 480 system (Roche). Target mRNA was normalized to GAPDH mRNA as an internal control in each sample.
Both STATw and STATb remained on lifelong STAT after initial exposure. Expression of immunological markers in ileal tissue was measured by qPCP at 20 weeks of age in both female and male mice.

[4] = tested on: 547 genes related to immunology in ileal tissue; assay: Ileal gene expression profiling via Nanostring Immunology Panel, STAT; type: in vivo, C57BL6J mice; conditions: for Significant Changes Down (ileal Nanostring) / Significant Changes Total (ileal Nanostring) / Significant Changes Up (ileal Nanostring): 8-week old mice
Protocol: RNA was extracted from ileal tissue using the miRNeasy mini kit (Qiagen, Redwood City, Calif., USA) at 8 weeks of age and the expression levels of 547 genes related to immunology were measured by nCounter GX Mouse Immunology Kit (Nanostring Technologies, Seattle, Wash., USA). Significant differences between treatment and control were determined by t-test. For functional characterization, the significant changes were analyzed by Ingenuity Pathway Analysis (Qiagen, Redwood City, Calif.).
Specifically, STAT decreased 111 and 74 genes and increased only 1 and 7 genes in male and female mice, respectively, with numerous consistencies across gender (FIG. 10A-C and Table 2).

## CC[C@H]1OC(=O)C[C@@H](O)[C@H](C)[C@@H](O[C@@H]2O[C@H](C)[C@@H](O[C@H]3C[C@@](C)(O)[C@@H](O)[C@H](C)O3)[C@H](N(C)C)[C@H]2O)[C@@H](CC=O)C[C@@H](C)C(=O)/C=C/C(C)=C/[C@@H]1CO[C@@H]1O[C@H](C)[C@@H](O)[C@@H](OC)[C@H]1OC [Tylosin, Tylosin tartrate]
[1]; male NOD mice, onset = 2 consecutive weeks blood glucose >250 mg/dl and glucosuria, vs control, listed as PAT
  development of T1D (diabetes incidence): accelerated; also recorded: higher rate
[2]; 6-week old NOD males, vs control or STAT males
  insulitis (score 0-4): significantly more

## CC1(C)S[C@@H]2[C@H](NC(=O)COc3ccccc3)C(=O)N2[C@H]1C(=O)[O-].[K+] [STAT, penicillin VK]
[3]; female mice, STAT from weaning or birth vs control
  ileal expression of Th17 transcription factor (RORγT): significant reductions
[3]; female mice, STAT vs control
  ileal expression of J-chain: significant reductions
  ileal expression of Reg3γ: significant reductions
  ileal expression of SAA1/SAA2: significant reductions
  ileal expression of SSA3: significant reductions
  ileal expression of cytokine: significant reductions
  ileal expression of cytokine TH-17A: significant reductions
  ileal expression of defensin β1 (Defb1): significant reductions
  ileal expression of polymeric Ig receptor (pIgR): significant reductions
[3]; male mice, STAT vs control
  ileal expression of J-chain: lacked differences
  ileal expression of RORγt: lacked differences
  ileal expression of pIgR: lacked differences
[4]; STAT-Female vs control
  Significant Changes Down (ileal Nanostring): 74
  Significant Changes Total (ileal Nanostring): 81
  Significant Changes Up (ileal Nanostring): 7
[4]; STAT-Male vs control
  Significant Changes Down (ileal Nanostring): 111
  Significant Changes Total (ileal Nanostring): 112
[4]; STAT-Male vs control, n=4 per group, t-test <0.05
  Significant Changes Up (ileal Nanostring): 1
[4]; Shared: STAT-F + Recip-F
  Significant Changes Down, shared: 1
  Significant Changes Total, shared: 1
  Significant Changes Up, shared: 0
[4]; Shared: STAT-M + Recip-F
  Significant Changes Down, shared: 3
  Significant Changes Total, shared: 3
  Significant Changes Up, shared: 0
[4]; Shared: STAT-M + STAT-F
  Significant Changes Down, shared: 37
  Significant Changes Total, shared: 37
  Significant Changes Up, shared: 0
[1]; NOD mice, STAT-antibiotic-treated
  type 1 diabetes expression: no different from controls
[2]; 6-week old NOD females, vs controls
  islet inflammation (insulitis score 0-4): significantly more
